ChEMBL document CHEMBL1201862, “PubChem BioAssay data set” (2004)
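Tested at 5 concentrations; 48 h exposure; 96-well plates; endpoints linearly interpolated, else capped at highest concentration. GI50 is the concentration that inhibits growth by half.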 The source made the active and inactive calls. No stated cut-off is given here; in the data, active = GI50 up to about 1.1 µM and inactive = higher.

Key:
Assay in all cases: inhibition of tumour cell growth, NCI panel, 48 h
[1] = system: 786-0
[2] = system: A498
[3] = system: A549
[4] = system: ACHN
[5] = system: CAKI-1
[6] = system: CCRF-CEM
[7] = system: COLO 205
[8] = system: DLD-1
[9] = system: DMS-114
[10] = system: DMS-273
[11] = system: EKVX
[12] = system: HCC 2998
[13] = system: HCT-116
[14] = system: HCT-15
[15] = system: HL-60
[16] = system: HOP-62
[17] = system: HOP-92
[18] = system: HT-29
[19] = system: IGROV-1
[20] = system: K562
[21] = system: KM-20L2
[22] = system: KM12
[23] = system: LOX IMVI
[24] = system: LXFL 529
[25] = system: M14
[26] = system: M19-MEL
[27] = system: MOLT-4
[28] = system: Malme-3M
[29] = system: NCI-H226
[30] = system: NCI-H23
[31] = system: NCI-H460
[32] = system: NCI-H522
[33] = system: OVCAR-3
[34] = system: OVCAR-4
[35] = system: OVCAR-5
[36] = system: OVCAR-8
[37] = system: RPMI-8226
[38] = system: RXF 393
[39] = system: RXF 631
[40] = system: SF-268
[41] = system: SF-295
[42] = system: SF-539
[43] = system: SK-MEL-28
[44] = system: SK-MEL-5
[45] = system: SK-OV-3
[46] = system: SN12C
[47] = system: SNB-19
[48] = system: SNB-75
[49] = system: SNB-78
[50] = system: SW-620
[51] = system: TK-10
[52] = system: U-251
[53] = system: UACC-257
[54] = system: UACC-62
[55] = system: UO-31
[56] = system: XF498
[57] = system: BT-549
[58] = system: DU-145
[59] = system: Hs-578T
[60] = system: MCF7
[61] = system: MDA-MB-231
[62] = system: MDA-MB-435
[63] = system: MDA-N
[64] = system: NCI/ADR-RES
[65] = system: PC-3
[66] = system: SK-MEL-2
[67] = system: SR
[68] = system: T47D

COC(=O)C1=Cc2c(OC)cc(OC)c(OC)c2[C@H](c2cc(OC)c(OC)cc2OC)C1C(=O)OC (stereo partly specified)
GI50 [1]: > 100 µM (inactive)
GI50 [2]: > 100 µM (inactive)
GI50 [3]: > 100 µM (inactive)
GI50 [4]: > 100 µM (inactive)
GI50 [5]: > 100 µM (inactive)
GI50 [6]: 64.7 µM (inactive)
GI50 [7]: > 100 µM (inactive)
GI50 [8]: > 100 µM (inactive)
GI50 [9]: > 100 µM (inactive)
GI50 [10]: 42.7 µM (inactive)
GI50 [11]: > 100 µM (inactive)
GI50 [12]: > 100 µM (inactive)
GI50 [13]: > 100 µM (inactive)
GI50 [14]: > 100 µM
GI50 [15]: 28.8 µM (inactive)
GI50 [16]: > 100 µM (inactive)
GI50 [17]: > 100 µM (inactive)
GI50 [18]: > 100 µM (inactive)
GI50 [19]: > 100 µM (inactive)
GI50 [20]: 20.1 µM (inactive)
GI50 [21]: > 100 µM (inactive)
GI50 [22]: > 100 µM (inactive)
GI50 [23]: > 100 µM (inactive)
GI50 [24]: > 100 µM (inactive)
GI50 [25]: > 100 µM (inactive)
GI50 [26]: > 100 µM (inactive)
GI50 [27]: > 100 µM (inactive)
GI50 [28]: > 100 µM (inactive)
GI50 [29]: > 100 µM (inactive)
GI50 [30]: > 100 µM (inactive)
GI50 [31]: > 100 µM (inactive)
GI50 [32]: > 100 µM (inactive)
GI50 [33]: > 100 µM (inactive)
GI50 [34]: 99.5 µM (inactive)
GI50 [35]: > 100 µM (inactive)
GI50 [36]: > 100 µM (inactive)
GI50 [37]: > 100 µM (inactive)
GI50 [38]: > 100 µM (inactive)
GI50 [39]: > 100 µM (inactive)
GI50 [40]: > 100 µM (inactive)
GI50 [41]: 88.5 µM (inactive)
GI50 [42]: 54.7 µM (inactive)
GI50 [43]: > 100 µM (inactive)
GI50 [44]: > 100 µM (inactive)
GI50 [45]: > 100 µM (inactive)
GI50 [46]: > 100 µM (inactive)
GI50 [47]: > 100 µM (inactive)
GI50 [48]: 57.8 µM (inactive)
GI50 [49]: 20.7 µM (inactive)
GI50 [50]: > 100 µM (inactive)
GI50 [51]: > 100 µM (inactive)
GI50 [52]: > 100 µM (inactive)
GI50 [53]: > 10 µM (inactive)
GI50 [54]: > 100 µM (inactive)
GI50 [55]: > 100 µM (inactive)
GI50 [56]: > 100 µM (inactive)

CCN(CC)c1ccc(C(=C2C=CC(=[N+](CC)CC)C=C2)c2ccc(N(CC)CC)cc2)cc1
GI50 [1]: 0.057 µM (active)
GI50 [3]: 0.04 µM (active)
GI50 [4]: 0.0446 µM (active)
GI50 [57]: 0.0332 µM (active)
GI50 [5]: 0.21 µM (active)
GI50 [6]: 0.0593 µM (active)
GI50 [7]: 0.0627 µM (active)
GI50 [8]: 0.063 µM (active)
GI50 [9]: 0.0507 µM (active)
GI50 [10]: 0.137 µM (active)
GI50 [58]: 0.0708 µM (active)
GI50 [11]: 0.244 µM (active)
GI50 [12]: 0.186 µM (active)
GI50 [13]: 0.0493 µM (active)
GI50 [14]: 0.194 µM
GI50 [15]: 0.0303 µM (active)
GI50 [16]: 0.238 µM (active)
GI50 [17]: 0.211 µM (active)
GI50 [18]: 0.0414 µM (active)
GI50 [59]: 0.0889 µM (active)
GI50 [19]: 0.146 µM (active)
GI50 [20]: 0.0353 µM (active)
GI50 [21]: 0.184 µM (active)
GI50 [22]: 0.0561 µM (active)
GI50 [23]: 0.0541 µM (active)
GI50 [25]: 0.175 µM (active)
GI50 [26]: 0.0948 µM (active)
GI50 [60]: 0.158 µM (active)
GI50 [61]: 0.063 µM (active)
GI50 [62]: 0.111 µM (active)
GI50 [63]: 0.103 µM (active)
GI50 [27]: 0.115 µM (active)
GI50 [28]: 0.148 µM (active)
GI50 [29]: 0.407 µM (active)
GI50 [30]: 0.0773 µM (active)
GI50 [31]: 0.0411 µM (active)
GI50 [32]: 0.113 µM (active)
GI50 [64]: 0.521 µM (active)
GI50 [33]: 0.0393 µM (active)
GI50 [34]: 0.234 µM (active)
GI50 [35]: 0.303 µM (active)
GI50 [36]: 0.0391 µM (active)
GI50 [65]: 0.0423 µM (active)
GI50 [37]: 0.0342 µM (active)
GI50 [38]: 0.18 µM (active)
GI50 [39]: 0.194 µM (active)
GI50 [40]: 0.084 µM (active)
GI50 [41]: 0.0483 µM (active)
GI50 [42]: 0.195 µM (active)
GI50 [43]: 0.489 µM (active)
GI50 [66]: 0.117 µM (active)
GI50 [44]: 0.094 µM (active)
GI50 [45]: 0.0773 µM (active)
GI50 [46]: 0.0522 µM (active)
GI50 [47]: 0.101 µM (active)
GI50 [48]: 0.104 µM (active)
GI50 [49]: 0.398 µM (active)
GI50 [67]: 0.0843 µM (active)
GI50 [50]: 0.0711 µM (active)
GI50 [68]: 0.106 µM (active)
GI50 [51]: 0.214 µM (active)
GI50 [52]: 0.0412 µM (active)
GI50 [53]: 0.132 µM (active)
GI50 [54]: 0.219 µM (active)
GI50 [55]: 0.212 µM (active)
GI50 [56]: 0.0296 µM (active)

N#C[C-](C#N)[n+]1ccc(Cl)cc1
GI50 [1]: 18.7 µM (inactive)
GI50 [2]: 28.7 µM (inactive)
GI50 [3]: 34.3 µM (inactive)
GI50 [5]: 3.53 µM (inactive)
GI50 [6]: 9.27 µM (inactive)
GI50 [7]: 18.5 µM (inactive)
GI50 [8]: 11.5 µM (inactive)
GI50 [9]: 13.4 µM (inactive)
GI50 [10]: 18.7 µM (inactive)
GI50 [11]: 19 µM (inactive)
GI50 [13]: 14.5 µM (inactive)
GI50 [14]: 14.4 µM
GI50 [15]: 4.27 µM (inactive)
GI50 [16]: 29.2 µM (inactive)
GI50 [17]: 15.3 µM (inactive)
GI50 [18]: 18 µM (inactive)
GI50 [19]: 19.1 µM (inactive)
GI50 [20]: 3.03 µM (inactive)
GI50 [21]: 24.2 µM (inactive)
GI50 [22]: 23.3 µM (inactive)
GI50 [23]: 11.2 µM (inactive)
GI50 [24]: 13.6 µM (inactive)
GI50 [25]: 17 µM (inactive)
GI50 [26]: 12.4 µM (inactive)
GI50 [27]: 12.7 µM (inactive)
GI50 [28]: 15.8 µM (inactive)
GI50 [29]: 25.3 µM (inactive)
GI50 [30]: 16.2 µM (inactive)
GI50 [31]: 22.5 µM (inactive)
GI50 [32]: 3.19 µM (inactive)
GI50 [33]: 17.7 µM (inactive)
GI50 [34]: 24.9 µM (inactive)
GI50 [35]: 18.7 µM (inactive)
GI50 [36]: 17.1 µM (inactive)
GI50 [37]: 4.79 µM (inactive)
GI50 [38]: 16.7 µM (inactive)
GI50 [39]: 17.4 µM (inactive)
GI50 [40]: 14.4 µM (inactive)
GI50 [41]: 19 µM (inactive)
GI50 [42]: 20.4 µM (inactive)
GI50 [44]: 16.1 µM (inactive)
GI50 [45]: 34 µM (inactive)
GI50 [46]: 14.4 µM (inactive)
GI50 [47]: 32.1 µM (inactive)
GI50 [48]: 17.5 µM (inactive)
GI50 [49]: 17.9 µM (inactive)
GI50 [67]: 14.4 µM (inactive)
GI50 [50]: 10.9 µM (inactive)
GI50 [51]: 22.3 µM (inactive)
GI50 [52]: 16.2 µM (inactive)
GI50 [53]: 15.2 µM (inactive)
GI50 [54]: 15.9 µM (inactive)
GI50 [55]: 22.8 µM (inactive)
GI50 [56]: 19.3 µM (inactive)

NC(=S)NNC(=O)CCC(=O)Nc1ccc(Cl)cc1Cl
GI50 [1]: > 100 µM (inactive)
GI50 [2]: > 100 µM (inactive)
GI50 [3]: > 100 µM (inactive)
GI50 [4]: > 100 µM (inactive)
GI50 [5]: > 100 µM (inactive)
GI50 [6]: > 100 µM (inactive)
GI50 [7]: > 100 µM (inactive)
GI50 [8]: > 100 µM (inactive)
GI50 [9]: 41.7 µM (inactive)
GI50 [10]: 38.7 µM (inactive)
GI50 [12]: > 100 µM (inactive)
GI50 [13]: > 100 µM (inactive)
GI50 [14]: 50.4 µM
GI50 [15]: > 100 µM (inactive)
GI50 [16]: > 100 µM (inactive)
GI50 [17]: > 100 µM (inactive)
GI50 [18]: > 100 µM (inactive)
GI50 [19]: > 100 µM (inactive)
GI50 [20]: 17.7 µM (inactive)
GI50 [21]: > 100 µM (inactive)
GI50 [22]: > 100 µM (inactive)
GI50 [23]: 66.8 µM (inactive)
GI50 [24]: 26.1 µM (inactive)
GI50 [25]: 37.1 µM (inactive)
GI50 [26]: > 100 µM (inactive)
GI50 [27]: 55.3 µM (inactive)
GI50 [28]: > 100 µM (inactive)
GI50 [29]: > 100 µM (inactive)
GI50 [30]: > 100 µM (inactive)
GI50 [31]: > 100 µM (inactive)
GI50 [32]: > 100 µM (inactive)
GI50 [33]: > 100 µM (inactive)
GI50 [34]: > 100 µM (inactive)
GI50 [35]: > 100 µM (inactive)
GI50 [36]: > 100 µM (inactive)
GI50 [37]: 43.5 µM (inactive)
GI50 [38]: > 100 µM (inactive)
GI50 [39]: > 100 µM (inactive)
GI50 [40]: > 100 µM (inactive)
GI50 [41]: > 100 µM (inactive)
GI50 [42]: > 100 µM (inactive)
GI50 [43]: > 100 µM (inactive)
GI50 [66]: 42.9 µM (inactive)
GI50 [44]: 62.7 µM (inactive)
GI50 [45]: > 100 µM (inactive)
GI50 [46]: > 100 µM (inactive)
GI50 [47]: > 100 µM (inactive)
GI50 [48]: > 100 µM (inactive)
GI50 [49]: > 100 µM (inactive)
GI50 [50]: > 100 µM (inactive)
GI50 [51]: > 100 µM (inactive)
GI50 [52]: > 100 µM (inactive)
GI50 [53]: > 100 µM (inactive)
GI50 [54]: 29.9 µM (inactive)
GI50 [55]: > 100 µM (inactive)
